Data reported in ChEMBL document CHEMBL1146309, “Tetrahydrobenzotriazines as a new class of nematocide” (2007).

The compounds below were run on Caenorhabditis elegans (assay: Nematocidal activity against Caenorhabditis elegans assessed as revised death rate after 24 to 48 hrs).
Format: functional
Design: concentration or dose not given beside the values

Structure (SMILES)	Activity
CC1=CC=CC2(C)CN(C)N(C(=O)N(C)c3ccccc3)N=C12 (stereo unspecified)	74.2%
CC1=CC=CC2(C)CN(C)N(C(=S)Nc3ccccc3)N=C12 (stereo unspecified)	20.9%
CC1=CC=CC2(C)CN(C)N(C(=S)N(C)c3ccccc3)N=C12 (stereo unspecified)	100%
CC(=O)N1N=C2C(C)=CC=CC2(C)CN1C (stereo unspecified)	100%
CCCCCCCC(=O)N1N=C2C(C)=CC=CC2(C)CN1C (stereo unspecified)	10.3%
CCCCCCCCCC(=O)N1N=C2C(C)=CC=CC2(C)CN1C (stereo unspecified)	64.6%
CCCCCCCCCCC(=O)N1N=C2C(C)=CC=CC2(C)CN1C (stereo unspecified)	20.3%
CCCCCCCCCCCC(=O)N1N=C2C(C)=CC=CC2(C)CN1C (stereo unspecified)	17.2%
CCCCCCCCC(=O)N1N=C2C(C)=CC=CC2(C)CN1C (stereo unspecified)	97%
CC1=CC=CC2(C)CN(C)N(C(=O)Nc3ccccc3)N=C12 (stereo unspecified)	43.8%
CN=C=S [METHYLISOTHIOCYANATE]	100%
